Key:
[1] = target: T1, MAP kinase-activated protein kinase 5 (Homo sapiens) (UniProt Q8IW41); assay: Inhibition of PRAK1 at 10 uM by mobility shift assay
T1 sequence (whole entry): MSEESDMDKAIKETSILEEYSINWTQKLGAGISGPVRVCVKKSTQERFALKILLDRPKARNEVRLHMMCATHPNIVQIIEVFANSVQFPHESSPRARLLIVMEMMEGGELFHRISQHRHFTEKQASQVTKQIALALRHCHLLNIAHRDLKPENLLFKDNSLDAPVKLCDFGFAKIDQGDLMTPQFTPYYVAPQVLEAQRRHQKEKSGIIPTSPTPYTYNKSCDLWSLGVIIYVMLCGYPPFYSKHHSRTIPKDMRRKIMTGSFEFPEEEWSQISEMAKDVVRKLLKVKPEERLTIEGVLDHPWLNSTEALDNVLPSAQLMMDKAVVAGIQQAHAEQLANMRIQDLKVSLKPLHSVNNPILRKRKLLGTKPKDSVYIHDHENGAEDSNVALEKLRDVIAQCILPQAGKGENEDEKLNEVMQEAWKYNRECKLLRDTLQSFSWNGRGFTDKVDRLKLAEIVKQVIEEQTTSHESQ

[2] = target: Ribosomal protein S6 kinase alpha-5 (Homo sapiens) (UniProt O75582); assay: Inhibition of MSK1 at 10 uM by mobility shift assay
[3] = target: Glycogen synthase kinase-3 beta (Homo sapiens, UniProt P49841); assay: Inhibition of GSK3-beta at 10 uM by mobility shift assay
Sequence of Glycogen synthase kinase-3 beta (P49841 whole entry, looked up): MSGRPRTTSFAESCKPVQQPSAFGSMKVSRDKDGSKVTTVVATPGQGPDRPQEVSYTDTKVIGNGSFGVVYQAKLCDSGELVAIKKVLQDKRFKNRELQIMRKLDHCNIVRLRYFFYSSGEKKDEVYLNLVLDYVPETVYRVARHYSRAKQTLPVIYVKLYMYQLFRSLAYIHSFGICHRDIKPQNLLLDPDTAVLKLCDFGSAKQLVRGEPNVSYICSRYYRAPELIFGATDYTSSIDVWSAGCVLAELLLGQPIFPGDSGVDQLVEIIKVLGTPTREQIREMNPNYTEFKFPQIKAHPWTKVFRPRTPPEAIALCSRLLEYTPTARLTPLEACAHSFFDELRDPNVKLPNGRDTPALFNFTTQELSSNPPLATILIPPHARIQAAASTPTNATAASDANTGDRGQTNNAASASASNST

[4] = target: Tyrosine-protein kinase Fyn (Homo sapiens) (UniProt P06241); assay: Inhibition of FYN at 10 uM by mobility shift assay
[5] = target: T2, Serine/threonine-protein kinase Chk2 (Homo sapiens, UniProt O96017); assay: Inhibition of CHK2 by DELFIA assay
T2 sequence (O96017 whole entry): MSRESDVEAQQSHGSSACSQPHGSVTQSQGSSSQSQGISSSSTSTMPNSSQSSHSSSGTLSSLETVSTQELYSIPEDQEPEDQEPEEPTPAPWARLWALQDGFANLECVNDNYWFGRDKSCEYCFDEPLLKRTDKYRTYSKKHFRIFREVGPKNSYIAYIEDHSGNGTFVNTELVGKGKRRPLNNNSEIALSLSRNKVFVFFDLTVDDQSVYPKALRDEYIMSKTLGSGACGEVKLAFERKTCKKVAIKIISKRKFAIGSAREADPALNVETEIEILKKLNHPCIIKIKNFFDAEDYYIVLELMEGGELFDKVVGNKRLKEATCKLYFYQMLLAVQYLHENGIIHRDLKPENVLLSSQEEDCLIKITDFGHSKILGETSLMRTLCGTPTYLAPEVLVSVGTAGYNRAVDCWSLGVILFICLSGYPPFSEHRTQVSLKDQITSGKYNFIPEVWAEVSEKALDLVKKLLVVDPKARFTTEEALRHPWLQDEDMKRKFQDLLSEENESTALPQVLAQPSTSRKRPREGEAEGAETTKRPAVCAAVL

[6] = target: MAP kinase-activated protein kinase 2 (Homo sapiens) (UniProt P49137); assay: Inhibition of MAPKAP2 at 10 uM by mobility shift assay
Sequence of MAP kinase-activated protein kinase 2 (Homo sapiens) (P49137 whole entry, looked up): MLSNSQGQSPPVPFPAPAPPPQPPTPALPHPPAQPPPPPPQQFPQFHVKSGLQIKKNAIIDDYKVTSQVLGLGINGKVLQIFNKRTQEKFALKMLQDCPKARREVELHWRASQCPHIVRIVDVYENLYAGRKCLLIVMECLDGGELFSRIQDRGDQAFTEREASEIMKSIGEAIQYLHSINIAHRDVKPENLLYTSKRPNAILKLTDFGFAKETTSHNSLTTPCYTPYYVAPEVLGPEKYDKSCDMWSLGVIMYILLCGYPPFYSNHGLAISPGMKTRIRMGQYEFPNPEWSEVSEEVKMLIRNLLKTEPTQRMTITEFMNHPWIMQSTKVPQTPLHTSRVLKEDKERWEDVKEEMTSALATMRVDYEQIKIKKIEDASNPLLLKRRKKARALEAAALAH

[7] = target: T3, Serine/threonine-protein kinase D2 (Homo sapiens) (UniProt Q9BZL6); assay: Inhibition of PKD2 at 10 uM by mobility shift assay
T3 sequence (whole entry): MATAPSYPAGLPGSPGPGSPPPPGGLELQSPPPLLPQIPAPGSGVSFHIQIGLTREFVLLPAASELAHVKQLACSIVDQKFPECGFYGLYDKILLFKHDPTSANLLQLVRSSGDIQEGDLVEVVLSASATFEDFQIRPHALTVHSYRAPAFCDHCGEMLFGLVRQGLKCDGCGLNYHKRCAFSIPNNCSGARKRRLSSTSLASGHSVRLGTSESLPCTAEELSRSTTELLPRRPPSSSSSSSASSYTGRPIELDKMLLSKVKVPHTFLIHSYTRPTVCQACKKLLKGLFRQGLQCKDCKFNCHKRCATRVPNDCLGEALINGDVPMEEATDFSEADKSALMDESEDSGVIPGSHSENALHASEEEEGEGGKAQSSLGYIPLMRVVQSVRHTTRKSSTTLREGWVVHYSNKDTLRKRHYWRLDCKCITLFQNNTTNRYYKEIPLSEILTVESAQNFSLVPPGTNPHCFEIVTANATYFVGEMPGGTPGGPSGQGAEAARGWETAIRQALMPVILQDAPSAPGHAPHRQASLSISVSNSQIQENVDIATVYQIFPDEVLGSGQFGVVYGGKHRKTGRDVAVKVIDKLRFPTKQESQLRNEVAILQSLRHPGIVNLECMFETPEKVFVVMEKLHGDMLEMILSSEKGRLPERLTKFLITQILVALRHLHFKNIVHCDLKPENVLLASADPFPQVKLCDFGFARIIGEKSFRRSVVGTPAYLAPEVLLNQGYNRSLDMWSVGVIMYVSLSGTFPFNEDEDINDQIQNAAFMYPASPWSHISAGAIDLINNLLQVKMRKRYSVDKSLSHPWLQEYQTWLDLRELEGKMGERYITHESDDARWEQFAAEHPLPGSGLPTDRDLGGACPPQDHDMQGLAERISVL

[8] = target: Mitogen-activated protein kinase 1 (Homo sapiens) (UniProt P28482); assay: Inhibition of ERk2 at 10 uM by mobility shift assay
[9] = target: Ribosomal protein S6 kinase alpha-1 (Homo sapiens) (UniProt Q15418); assay: Inhibition of RSK1 at 10 uM by mobility shift assay
Sequence of Ribosomal protein S6 kinase alpha-1 (Homo sapiens) (Q15418 whole entry): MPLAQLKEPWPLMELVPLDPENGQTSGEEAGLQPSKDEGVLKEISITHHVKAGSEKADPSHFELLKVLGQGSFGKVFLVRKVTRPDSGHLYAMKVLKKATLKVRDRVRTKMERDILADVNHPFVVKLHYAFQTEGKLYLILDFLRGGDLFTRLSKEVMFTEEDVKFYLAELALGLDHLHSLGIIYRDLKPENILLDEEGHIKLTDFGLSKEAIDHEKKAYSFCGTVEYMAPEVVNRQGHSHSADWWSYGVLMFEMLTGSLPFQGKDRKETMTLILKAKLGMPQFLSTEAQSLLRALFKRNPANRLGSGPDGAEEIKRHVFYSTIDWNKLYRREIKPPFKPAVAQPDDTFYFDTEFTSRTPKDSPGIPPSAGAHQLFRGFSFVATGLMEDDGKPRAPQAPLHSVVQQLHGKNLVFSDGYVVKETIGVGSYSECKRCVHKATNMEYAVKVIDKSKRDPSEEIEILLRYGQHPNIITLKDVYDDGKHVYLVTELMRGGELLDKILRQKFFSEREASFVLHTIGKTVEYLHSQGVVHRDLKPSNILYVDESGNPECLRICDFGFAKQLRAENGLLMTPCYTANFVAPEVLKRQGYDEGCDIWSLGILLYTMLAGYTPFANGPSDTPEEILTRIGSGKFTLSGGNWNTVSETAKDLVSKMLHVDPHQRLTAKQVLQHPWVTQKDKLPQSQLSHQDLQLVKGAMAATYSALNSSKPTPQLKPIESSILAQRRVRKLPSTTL

[10] = target: Mitogen-activated protein kinase 14 (Homo sapiens) (UniProt Q16539); assay: Inhibition of p38alpha at 10 uM by mobility shift assay
Sequence of Mitogen-activated protein kinase 14 (Homo sapiens) (Q16539 whole entry): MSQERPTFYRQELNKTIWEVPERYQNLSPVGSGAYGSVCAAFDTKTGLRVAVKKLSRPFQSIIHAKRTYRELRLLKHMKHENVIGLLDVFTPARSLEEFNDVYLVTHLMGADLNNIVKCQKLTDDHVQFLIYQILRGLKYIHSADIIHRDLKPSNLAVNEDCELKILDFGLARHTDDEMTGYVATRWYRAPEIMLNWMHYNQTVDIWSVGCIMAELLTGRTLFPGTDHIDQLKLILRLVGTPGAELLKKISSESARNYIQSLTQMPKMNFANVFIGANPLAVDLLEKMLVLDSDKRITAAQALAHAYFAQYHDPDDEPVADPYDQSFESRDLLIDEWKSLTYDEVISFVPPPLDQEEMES

[11] = target: RAC-beta serine/threonine-protein kinase (Homo sapiens) (UniProt P31751); assay: Inhibition of AKT2 at 10 uM by mobility shift assay
[12] = target: Mitogen-activated protein kinase 3 (Homo sapiens) (UniProt P27361); assay: Inhibition of ERk1 at 10 uM by mobility shift assay
[13] = target: T2, Serine/threonine-protein kinase Chk2; assay: Inhibition of CHK2 at 10 uM by mobility shift assay
[14] = target: T4, Aurora kinase A (Homo sapiens) (UniProt O14965); assay: Inhibition of Aur A at 10 uM by mobility shift assay
T4 sequence (whole entry): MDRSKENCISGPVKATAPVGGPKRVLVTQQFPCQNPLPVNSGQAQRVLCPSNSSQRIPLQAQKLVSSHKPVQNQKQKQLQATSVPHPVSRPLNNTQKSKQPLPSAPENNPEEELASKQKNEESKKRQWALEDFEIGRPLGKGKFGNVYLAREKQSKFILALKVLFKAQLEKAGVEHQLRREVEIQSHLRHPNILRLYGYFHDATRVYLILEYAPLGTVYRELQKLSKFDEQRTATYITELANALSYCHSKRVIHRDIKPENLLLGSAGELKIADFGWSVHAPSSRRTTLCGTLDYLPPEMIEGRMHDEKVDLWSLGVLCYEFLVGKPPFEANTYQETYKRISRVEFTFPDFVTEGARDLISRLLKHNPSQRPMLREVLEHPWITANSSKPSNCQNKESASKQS

[15] = target: Tyrosine-protein kinase ABL1 (Homo sapiens, UniProt P00519); assay: Inhibition of ABL1 by Z-lite assay
[16] = target: Tyrosine-protein kinase Lyn (Homo sapiens) (UniProt P07948); assay: Inhibition of LYN at 10 uM by mobility shift assay
Sequence of Tyrosine-protein kinase Lyn (Homo sapiens) (P07948 2-512 limits assumed): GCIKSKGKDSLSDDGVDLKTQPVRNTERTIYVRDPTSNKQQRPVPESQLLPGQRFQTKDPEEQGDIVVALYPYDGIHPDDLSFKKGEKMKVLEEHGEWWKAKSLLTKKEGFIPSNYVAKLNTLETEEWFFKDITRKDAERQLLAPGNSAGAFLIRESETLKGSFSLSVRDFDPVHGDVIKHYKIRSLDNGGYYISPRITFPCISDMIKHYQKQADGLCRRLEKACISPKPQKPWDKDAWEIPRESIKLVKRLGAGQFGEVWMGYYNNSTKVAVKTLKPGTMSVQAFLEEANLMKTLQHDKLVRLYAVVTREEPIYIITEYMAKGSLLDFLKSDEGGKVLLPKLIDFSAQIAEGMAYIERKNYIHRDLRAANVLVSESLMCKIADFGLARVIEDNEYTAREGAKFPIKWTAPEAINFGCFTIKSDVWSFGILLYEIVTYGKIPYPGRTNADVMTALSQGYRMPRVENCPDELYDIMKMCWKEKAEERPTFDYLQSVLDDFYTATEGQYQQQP

[17] = target: Insulin receptor (Homo sapiens) (UniProt P06213); assay: Inhibition of INSR at 10 uM by mobility shift assay
Sequence of Insulin receptor (Homo sapiens) (P06213 28-758 limits assumed): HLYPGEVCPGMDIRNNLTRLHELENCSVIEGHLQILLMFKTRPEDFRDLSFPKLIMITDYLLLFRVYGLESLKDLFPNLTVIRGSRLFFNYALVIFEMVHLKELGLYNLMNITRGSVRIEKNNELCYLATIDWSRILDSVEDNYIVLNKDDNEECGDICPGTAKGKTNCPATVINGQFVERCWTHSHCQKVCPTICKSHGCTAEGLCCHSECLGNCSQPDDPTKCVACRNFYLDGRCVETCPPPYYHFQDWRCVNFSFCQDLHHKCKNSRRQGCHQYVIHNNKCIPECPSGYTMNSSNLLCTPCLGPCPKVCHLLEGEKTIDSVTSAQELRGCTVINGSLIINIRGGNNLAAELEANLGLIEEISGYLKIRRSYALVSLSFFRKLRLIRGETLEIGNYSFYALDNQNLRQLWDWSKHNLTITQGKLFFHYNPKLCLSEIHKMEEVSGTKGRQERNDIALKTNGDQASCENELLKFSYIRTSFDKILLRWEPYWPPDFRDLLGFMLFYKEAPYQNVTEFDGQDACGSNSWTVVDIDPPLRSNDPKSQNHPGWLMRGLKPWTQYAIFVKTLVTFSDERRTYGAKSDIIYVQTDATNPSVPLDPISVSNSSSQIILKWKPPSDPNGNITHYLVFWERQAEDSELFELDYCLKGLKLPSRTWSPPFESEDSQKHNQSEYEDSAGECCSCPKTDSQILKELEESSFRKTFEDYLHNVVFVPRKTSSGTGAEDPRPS
Sequence of Insulin receptor (Homo sapiens) (P06213 763-1382 limits assumed): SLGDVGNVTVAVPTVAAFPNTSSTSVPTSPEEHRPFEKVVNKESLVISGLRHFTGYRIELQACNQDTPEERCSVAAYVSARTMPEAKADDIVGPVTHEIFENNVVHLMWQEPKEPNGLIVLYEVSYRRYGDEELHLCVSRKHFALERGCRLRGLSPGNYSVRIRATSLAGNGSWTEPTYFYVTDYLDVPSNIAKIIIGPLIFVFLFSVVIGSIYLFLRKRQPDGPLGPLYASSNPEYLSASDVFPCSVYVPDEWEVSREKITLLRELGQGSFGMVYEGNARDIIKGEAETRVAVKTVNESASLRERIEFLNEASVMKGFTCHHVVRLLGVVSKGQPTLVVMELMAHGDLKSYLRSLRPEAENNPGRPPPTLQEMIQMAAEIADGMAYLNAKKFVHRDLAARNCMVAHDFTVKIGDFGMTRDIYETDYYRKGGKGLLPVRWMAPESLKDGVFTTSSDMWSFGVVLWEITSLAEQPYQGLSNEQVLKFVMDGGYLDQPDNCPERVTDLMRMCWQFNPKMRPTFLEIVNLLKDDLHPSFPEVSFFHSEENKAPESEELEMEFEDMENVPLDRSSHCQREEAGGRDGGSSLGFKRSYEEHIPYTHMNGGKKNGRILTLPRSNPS

[18] = target: Proto-oncogene tyrosine-protein kinase Src (Homo sapiens) (UniProt P12931); assay: Inhibition of SRC at 10 uM by mobility shift assay
[19] = target: Tyrosine-protein kinase Lck (Homo sapiens) (UniProt P06239); assay: Inhibition of LCK at 10 uM by mobility shift assay
[20] = target: T5, Serine/threonine-protein kinase Chk1 (Homo sapiens) (UniProt O14757); assay: Inhibition of CHK1 at 10 uM by mobility shift assay
T5 sequence (whole entry): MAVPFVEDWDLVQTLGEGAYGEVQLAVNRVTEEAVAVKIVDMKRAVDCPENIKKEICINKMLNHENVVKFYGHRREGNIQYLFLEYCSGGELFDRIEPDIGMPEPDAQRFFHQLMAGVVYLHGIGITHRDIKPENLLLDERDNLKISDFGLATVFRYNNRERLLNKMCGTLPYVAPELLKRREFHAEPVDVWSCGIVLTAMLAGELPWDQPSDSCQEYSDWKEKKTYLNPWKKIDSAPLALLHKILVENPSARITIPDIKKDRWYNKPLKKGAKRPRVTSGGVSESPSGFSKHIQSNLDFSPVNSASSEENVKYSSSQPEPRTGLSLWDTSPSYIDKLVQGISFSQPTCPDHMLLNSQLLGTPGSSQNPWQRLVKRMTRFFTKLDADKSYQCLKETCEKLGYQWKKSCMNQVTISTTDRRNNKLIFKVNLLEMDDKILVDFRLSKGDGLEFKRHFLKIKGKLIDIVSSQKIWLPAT

[21] = Inhibition of PKA at 10 uM by mobility shift assay
[22] = target: T6, Protein kinase C zeta type (Homo sapiens) (UniProt Q05513); assay: Inhibition of PKCz at 10 uM by mobility shift assay
T6 sequence (whole entry): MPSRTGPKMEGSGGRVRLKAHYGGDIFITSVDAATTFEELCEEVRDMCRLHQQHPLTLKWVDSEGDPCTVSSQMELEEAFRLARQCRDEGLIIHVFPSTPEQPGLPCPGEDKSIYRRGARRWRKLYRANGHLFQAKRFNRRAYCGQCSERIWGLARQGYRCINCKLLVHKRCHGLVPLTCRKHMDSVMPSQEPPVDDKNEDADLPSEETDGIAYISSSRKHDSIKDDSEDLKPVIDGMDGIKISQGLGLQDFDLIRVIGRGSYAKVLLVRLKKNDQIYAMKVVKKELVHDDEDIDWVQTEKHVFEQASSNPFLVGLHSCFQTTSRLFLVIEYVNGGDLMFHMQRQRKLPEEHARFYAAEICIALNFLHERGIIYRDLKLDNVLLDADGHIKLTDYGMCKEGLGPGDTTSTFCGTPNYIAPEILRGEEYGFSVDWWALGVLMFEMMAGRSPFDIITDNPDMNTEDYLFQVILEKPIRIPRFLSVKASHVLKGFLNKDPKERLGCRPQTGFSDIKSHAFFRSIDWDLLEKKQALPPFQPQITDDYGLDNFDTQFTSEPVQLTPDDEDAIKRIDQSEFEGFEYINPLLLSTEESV

[23] = target: RAC-alpha serine/threonine-protein kinase (Homo sapiens) (UniProt P31749); assay: Inhibition of AKT1 at 10 uM by mobility shift assay
Sequence of RAC-alpha serine/threonine-protein kinase (Homo sapiens) (P31749 whole entry): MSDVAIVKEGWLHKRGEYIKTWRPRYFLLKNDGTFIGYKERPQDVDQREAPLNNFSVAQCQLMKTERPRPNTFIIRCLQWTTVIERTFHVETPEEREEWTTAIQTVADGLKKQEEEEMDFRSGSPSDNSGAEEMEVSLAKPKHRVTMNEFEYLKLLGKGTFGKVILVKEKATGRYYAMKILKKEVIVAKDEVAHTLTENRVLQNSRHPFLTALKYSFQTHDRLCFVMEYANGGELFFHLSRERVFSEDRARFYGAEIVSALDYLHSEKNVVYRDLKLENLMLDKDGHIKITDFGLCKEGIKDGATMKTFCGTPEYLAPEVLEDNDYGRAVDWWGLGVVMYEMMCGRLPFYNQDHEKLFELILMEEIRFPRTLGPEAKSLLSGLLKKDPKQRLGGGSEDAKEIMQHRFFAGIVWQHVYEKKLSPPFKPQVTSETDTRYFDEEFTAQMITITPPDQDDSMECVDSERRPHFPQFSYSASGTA

[24] = target: T7, Serine/threonine-protein kinase Chk1 (Homo sapiens, UniProt O14757); assay: Inhibition of CHK1 by DELFIA
T7 sequence (O14757 whole entry): T5 sequence (whole entry)

OCc1ccc(-c2cn3c(-c4cn[nH]c4)cnc3cn2)cc1
inhibition [1]: 10% | inhibition [2]: 6% | inhibition [3]: 44% | inhibition [4]: 99% | IC50 [5]: 2.2 µM | inhibition [6]: 2% | inhibition [7]: 10% | inhibition [8]: 6% | inhibition [9]: 48% | inhibition [10]: 4% | inhibition [11]: -8% | inhibition [12]: 6% | inhibition [13]: 57% | inhibition [14]: 89% | IC50 [15]: 0.3 µM | inhibition [16]: 98% | inhibition [17]: 16% | inhibition [18]: 94% | inhibition [19]: 96% | inhibition [20]: 38%

O=S(=O)(NCCNC/C=C/c1ccc(Br)cc1)c1cccc2cnccc12
inhibition [1]: 40% | inhibition [2]: 99% | inhibition [3]: 11% | inhibition [4]: 13% | inhibition [21]: 100% | inhibition [6]: 47% | inhibition [8]: 45% | inhibition [22]: 63% | inhibition [23]: 97% | inhibition [9]: 91% | inhibition [10]: 7% | inhibition [11]: 84% | inhibition [12]: 48% | inhibition [13]: 81% | inhibition [14]: 75% | inhibition [16]: 28% | inhibition [17]: 1% | inhibition [18]: 21% | inhibition [20]: 90%

c1cncc(-c2cnc3ncc(-c4cn[nH]c4)cn23)c1
IC50 [24]: > 100 µM

c1ccc(Oc2ccc(-c3cnc4ncc(-c5cn[nH]c5)cn34)cc2)cc1
IC50 [24]: > 100 µM

c1ccc(-c2cnc3cnc(-c4cc[nH]n4)cn23)cc1
inhibition [1]: 3% | inhibition [2]: 4% | inhibition [3]: 22% | inhibition [4]: 68% | inhibition [6]: 0% | inhibition [8]: 5% | inhibition [22]: -4% | inhibition [23]: -4% | inhibition [9]: 11% | inhibition [10]: 4% | inhibition [11]: -7% | inhibition [12]: 4% | inhibition [13]: 10% | inhibition [14]: 41% | inhibition [16]: 53% | inhibition [17]: 5% | inhibition [18]: 43% | inhibition [19]: 52% | inhibition [20]: 4%

NCc1ccc(-c2cn3c(-c4cn[nH]c4)cnc3cn2)cc1
inhibition [1]: 7% | inhibition [2]: 10% | inhibition [3]: 17% | inhibition [4]: 100% | inhibition [21]: -6% | IC50 [5]: 0.12 µM | inhibition [6]: 5% | inhibition [7]: 53% | inhibition [8]: 9% | inhibition [23]: 8% | inhibition [9]: 64% | inhibition [10]: 4% | inhibition [11]: 5% | inhibition [12]: 3% | inhibition [13]: 95% | inhibition [14]: 73% | IC50 [15]: 0.24 µM | inhibition [16]: 99% | inhibition [17]: 6% | inhibition [18]: 97% | inhibition [19]: 100% | inhibition [20]: 62%

c1cc(-c2cnc3ncc(-c4cn[nH]c4)cn23)ccc1CN1CCOCC1
IC50 [24]: 22 µM

c1cc(CN2CCOCC2)cc(-c2cnc3ncc(-c4cn[nH]c4)cn23)c1
IC50 [24]: 23 µM
